Data published in patent US7807384B2, “Low density lipoprotein binding proteins and their use in diagnosing and treating atherosclerosis” (Boston Heart Foundation, Inc., priority 1996, dated 2010).

Legend:
LBP-1/LDL binding = biological target: T1, LBP-1/LDL binding (Homo sapiens, UniProt P04114); assay: ACE assay of LBP-1/LDL binding in the presence of inhibitors; design: species or system rabbit; conditions: LDL 148 nM in gel; increasing inhibitor (polyglutamic acid 0-0.4 nM; BHF-1 0-10 nM)
T1 construct: the sizes of the recombinant proteins were determined to be 16.2 kDa for LBP-1; LDL was prepared from the plasma of normolipemic donors; 6-histidine tag (N); made in house; host or cells: E. coli DH10B, pPROEX-HT (LBP-1); LDL from human donor plasma
Experimental: (§1) This example illustrates that binding between LBP-1 or LBP-2 and LDL is inhibited by polyglutamic acid or BHF-1. The ability of a third compound to inhibit binding between two proteins previously shown to interact was tested by a modification of the ACE assays described in Example 8. The third compound was added to the top or wells together with the radiolabeled protein.
(§2) Inhibition of LBP-1/LDL or LBP-2/LDL binding by polyglutamic acid (average MW about 7500, corresponding to about […]) was shown by casting a constant amount of LDL (148 nM) in all the rectangular lanes. A constant amount (1 μl) of ^125I-labeled LBP-1 or LBP-2 (0.003 nM-0.016 nM) was loaded in the wells at the top of the gel, together with increasing concentrations of polyglutamic acid (obtained from Sigma) (0-0.4 nM). The gel was electrophoresed at 70 volts for 2 hr, dried and placed on X-ray film, with intensifying screens, overnight at −70° C. before the film was developed to determine the retardation profile of LBP-1 and LBP-2.
Inhibition of LBP-1/LDL binding by BHF-1 was shown by casting a constant amount of LDL (148 nM) in all the rectangular lanes. A constant amount of ^125I-labeled LBP-1 (0.003 nM-0.016 nM) was loaded in the wells at the top of the gel, together with increasing concentrations of BHF-1 (0-10 nM), obtained as described in Example 15. […]

LBP-2/LDL binding = biological target: T2, LBP-2/LDL binding (Homo sapiens, UniProt P04114); assay: ACE assay of LBP-2/LDL binding in the presence of inhibitors; design: species or system rabbit; conditions: LDL 148 nM in gel; polyglutamic acid 0-0.4 nM
T2 construct: LDL was prepared from the plasma of normolipemic donors; 6-histidine tag (N); made in house; host or cells: E. coli DH10B, pPROEX-HT (LBP-2); LDL from human donor plasma
Experimental: as §1, §2

recombinant LBP-1 = biological target: T3, recombinant LBP-1 (Homo sapiens, UniProt P04114); assay: ELISA plate assay, binding of LDL to recombinant LBP-1; conditions: ELISA format
T3 construct: the sizes of the recombinant proteins were determined to be 16.2 kDa for LBP-1; 6-histidine tag (N); made in house; host or cells: E. coli DH10B, pPROEX-HT (LBP-1); LDL from human donor plasma
Experimental: (§3) In one example, the ELISA assay was carried out as follows: LDL was diluted in 50 mM Na2HCO3, pH 9.6/0.02% NaN3 and added to the wells of a 96-well plate (ImmunoWare 96-Well Reacti-Bind EIA Polystyrene Plates; Pierce (Rockford, Ill.)) to achieve a final concentration ranging from 0.1 to 1 μg/well. The plates were incubated for 6 hr at room temperature. At the end of the incubation period, the wells were washed 3 times with Tris-buffered saline, pH 7.4 (TBS), and blocked overnight with 200 μl of 1% bovine serum albumin (BSA) in TBS/0.02% NaN3 (Sigma; St. Louis Mo.) at room temperature. The wells were then incubated with 200 μl of LBP protein (5-10 μg/well) in TBS and varying concentrations of the test compound. Plates were incubated for 1 hr at room temperature. The wells were then washed three times with TBS and blocked for 2 hr with 200 μl of 1% BSA in TBS/0.02% NaN3 at room temperature. At the end of the incubation period, the wells were washed 3 times with TBS and a 1:1000 dilution (in TBS/0.05% Tween 20) of the appropriate guinea pig anti-LBP protein polyclonal antibody was added to the wells and incubated for 1 hr at room temperature. […] The absorbance was determined at 405 nm using an ELISA plate reader. The test compound's effectiveness in blocking the binding of LDL to the recombinant protein was assessed by comparing the absorbance values of control and treated groups. […]

recombinant LBP-2 = assay: ELISA plate assay, binding of LDL to recombinant LBP-2; conditions: ELISA format
Experimental: as §3

[1] = system: ballooned deendothelialized rabbit aorta; assay: Radiolabeled LDL accumulation in ballooned deendothelialized abdominal aorta after active immunization; format: in vivo; conditions: immunized with RIBI adjuvant; corrected for dosage and percent reendothelialization; 24 hr after 125I-LDL
Experimental: Immunity was induced in male New Zealand White rabbits (Hazelton Research Products, Denver, Pa.) as follows: A mixture of purified human recombinant LBP-2 or BHF-1 peptide (1 ml; 1 mg) and RIBI adjuvant (RIBI ImmunoChem Research, Inc., Hamilton, Mont.) was injected subcutaneously at 2-5 sites along the dorsal thoracic and abdominal regions of the rabbits. Blood was collected by venipuncture on days 1 (preimmune bleeding), 35, 63, and 91. Booster injections were administered on days 28 (500 μg; SC), 56 (250 μg; SC), and 84 (125 μg; SC).
On day 93, the abdominal aorta of immunized and control rabbits was deendothelialized using a Fogarty number 4 embolectomy catheter (Chang et al., Arteriosclerosis and Thrombosis 12:1088-1098 (1992)). Four weeks after ballooning, rabbits received a bolus injection of ^125I-labeled LDL (1 ml; i.v.). […] Blood samples were centrifuged for 30 min at 2000 rpm ([…]) and total activity present in the serum was determined using a Gamma counter. Total TCA precipitable counts were determined by addition of TCA to the serum to a final concentration of 10% followed by incubation for 10 min at 4° C. Serum samples were then centrifuged (2000 rpm; 30 min; […]) and total activity present in the supernate was determined. TCA precipitable counts were calculated by subtraction: total soluble counts minus counts present in the supernate after TCA precipitation. […]

[2] = system: LDL receptor (LDLR) knockout mice; assay: Aortic cholesterol content in BHF-1-immunized LDLR knockout mice; format: in vivo, mouse; conditions: 30 weeks of age, modified Western Type diet, P>0.037 as printed
Experimental: An immunization experiment was performed with the BHF-1 peptide. LDL receptor (LDLR) knockout mice (B6,129S-Ldlr^tmlHer, Jackson Laboratories, Bar Harbor, Me.) were injected with the BHF-1 peptide (see Example 15 for methods of synthesizing the BHF-1 peptide) together with an RIBI adjuvant (RIBI ImmunoChem Research, Inc., Hamilton, Mont.). LDLR knockout mice are hyperlipidemic and thus a model for human atherosclerosis. LDLR knockout mice have high levels of plasma cholesterol and develop naturally-occurring atherosclerotic-like lesions.
Four week old LDLR knockout mice were ear tagged, randomly assigned to different cages and weighed. Body weights were subsequently determined weekly. Animals were allowed to habituate for one week prior to experimentation. […]
Mice in the experimental group received subcutaneous injections (9.99 μg/g body weight; 200 μl final volume) of the BHF-1.20.L peptide daily for 2 weeks, from 5 to 7 weeks of age, prior to the initial injection with the peptide and adjuvant. […] Titer was defined as the maximum dilution of serum that yielded a change in absorbance equivalent to 2× that of control serum (60 min; 37° C.). […]
At 30 weeks of age, the mice were sacrificed and aorta were removed as described in Example 22. Aortic atherosclerosis was measured by the cholesterol extraction method described in Example 22, whereby cholesterol is determined as a unit weight of artery.

[3] = Body weight and serum lipids of BHF-1-immunized LDLR knockout mice; format: in vivo, mouse
Description: Four week old LDLR knockout mice were ear tagged, randomly assigned to different cages and weighed. Body weights were subsequently determined weekly. Animals were allowed to habituate for one week prior to experimentation. Normal rodent chow was provided ad libitum and animals were maintained in a 12:12 light:dark cycle. Animals were divided into experimental and control groups, as follows: (1) experimental, 16 mice were immunized with the BHF-1.20.L peptide; (2) control, 8 mice were immunized against bovine serum albumin.
Blood samples were analyzed for total cholesterol, HDL cholesterol, and triglyceride concentration, using commercially available total cholesterol and triglycerides assay kits (Sigma, St. Louis Mo.) (ELISA). HDL concentration was determined after Apo B containing lipoproteins were precipitated using heparin/MnCl2.
When fed a normal rodent chow, total serum cholesterol concentration in LDLR knockout mice remains relatively low. A high fat diet, on the other hand, results in an increase in total serum cholesterol concentration in these mice. The animals were thus switched at 16 weeks of age to a modified “Western Type” diet (0.1% cholesterol content) (Harland Teklad, Madison, Wis.) and fed ad libitum. This diet was expected to increase the total serum cholesterol concentration to a range of 600-800 mg/dl, thereby increasing the rate of lesion formation. […]

T1 sequence (P04114 28-4563): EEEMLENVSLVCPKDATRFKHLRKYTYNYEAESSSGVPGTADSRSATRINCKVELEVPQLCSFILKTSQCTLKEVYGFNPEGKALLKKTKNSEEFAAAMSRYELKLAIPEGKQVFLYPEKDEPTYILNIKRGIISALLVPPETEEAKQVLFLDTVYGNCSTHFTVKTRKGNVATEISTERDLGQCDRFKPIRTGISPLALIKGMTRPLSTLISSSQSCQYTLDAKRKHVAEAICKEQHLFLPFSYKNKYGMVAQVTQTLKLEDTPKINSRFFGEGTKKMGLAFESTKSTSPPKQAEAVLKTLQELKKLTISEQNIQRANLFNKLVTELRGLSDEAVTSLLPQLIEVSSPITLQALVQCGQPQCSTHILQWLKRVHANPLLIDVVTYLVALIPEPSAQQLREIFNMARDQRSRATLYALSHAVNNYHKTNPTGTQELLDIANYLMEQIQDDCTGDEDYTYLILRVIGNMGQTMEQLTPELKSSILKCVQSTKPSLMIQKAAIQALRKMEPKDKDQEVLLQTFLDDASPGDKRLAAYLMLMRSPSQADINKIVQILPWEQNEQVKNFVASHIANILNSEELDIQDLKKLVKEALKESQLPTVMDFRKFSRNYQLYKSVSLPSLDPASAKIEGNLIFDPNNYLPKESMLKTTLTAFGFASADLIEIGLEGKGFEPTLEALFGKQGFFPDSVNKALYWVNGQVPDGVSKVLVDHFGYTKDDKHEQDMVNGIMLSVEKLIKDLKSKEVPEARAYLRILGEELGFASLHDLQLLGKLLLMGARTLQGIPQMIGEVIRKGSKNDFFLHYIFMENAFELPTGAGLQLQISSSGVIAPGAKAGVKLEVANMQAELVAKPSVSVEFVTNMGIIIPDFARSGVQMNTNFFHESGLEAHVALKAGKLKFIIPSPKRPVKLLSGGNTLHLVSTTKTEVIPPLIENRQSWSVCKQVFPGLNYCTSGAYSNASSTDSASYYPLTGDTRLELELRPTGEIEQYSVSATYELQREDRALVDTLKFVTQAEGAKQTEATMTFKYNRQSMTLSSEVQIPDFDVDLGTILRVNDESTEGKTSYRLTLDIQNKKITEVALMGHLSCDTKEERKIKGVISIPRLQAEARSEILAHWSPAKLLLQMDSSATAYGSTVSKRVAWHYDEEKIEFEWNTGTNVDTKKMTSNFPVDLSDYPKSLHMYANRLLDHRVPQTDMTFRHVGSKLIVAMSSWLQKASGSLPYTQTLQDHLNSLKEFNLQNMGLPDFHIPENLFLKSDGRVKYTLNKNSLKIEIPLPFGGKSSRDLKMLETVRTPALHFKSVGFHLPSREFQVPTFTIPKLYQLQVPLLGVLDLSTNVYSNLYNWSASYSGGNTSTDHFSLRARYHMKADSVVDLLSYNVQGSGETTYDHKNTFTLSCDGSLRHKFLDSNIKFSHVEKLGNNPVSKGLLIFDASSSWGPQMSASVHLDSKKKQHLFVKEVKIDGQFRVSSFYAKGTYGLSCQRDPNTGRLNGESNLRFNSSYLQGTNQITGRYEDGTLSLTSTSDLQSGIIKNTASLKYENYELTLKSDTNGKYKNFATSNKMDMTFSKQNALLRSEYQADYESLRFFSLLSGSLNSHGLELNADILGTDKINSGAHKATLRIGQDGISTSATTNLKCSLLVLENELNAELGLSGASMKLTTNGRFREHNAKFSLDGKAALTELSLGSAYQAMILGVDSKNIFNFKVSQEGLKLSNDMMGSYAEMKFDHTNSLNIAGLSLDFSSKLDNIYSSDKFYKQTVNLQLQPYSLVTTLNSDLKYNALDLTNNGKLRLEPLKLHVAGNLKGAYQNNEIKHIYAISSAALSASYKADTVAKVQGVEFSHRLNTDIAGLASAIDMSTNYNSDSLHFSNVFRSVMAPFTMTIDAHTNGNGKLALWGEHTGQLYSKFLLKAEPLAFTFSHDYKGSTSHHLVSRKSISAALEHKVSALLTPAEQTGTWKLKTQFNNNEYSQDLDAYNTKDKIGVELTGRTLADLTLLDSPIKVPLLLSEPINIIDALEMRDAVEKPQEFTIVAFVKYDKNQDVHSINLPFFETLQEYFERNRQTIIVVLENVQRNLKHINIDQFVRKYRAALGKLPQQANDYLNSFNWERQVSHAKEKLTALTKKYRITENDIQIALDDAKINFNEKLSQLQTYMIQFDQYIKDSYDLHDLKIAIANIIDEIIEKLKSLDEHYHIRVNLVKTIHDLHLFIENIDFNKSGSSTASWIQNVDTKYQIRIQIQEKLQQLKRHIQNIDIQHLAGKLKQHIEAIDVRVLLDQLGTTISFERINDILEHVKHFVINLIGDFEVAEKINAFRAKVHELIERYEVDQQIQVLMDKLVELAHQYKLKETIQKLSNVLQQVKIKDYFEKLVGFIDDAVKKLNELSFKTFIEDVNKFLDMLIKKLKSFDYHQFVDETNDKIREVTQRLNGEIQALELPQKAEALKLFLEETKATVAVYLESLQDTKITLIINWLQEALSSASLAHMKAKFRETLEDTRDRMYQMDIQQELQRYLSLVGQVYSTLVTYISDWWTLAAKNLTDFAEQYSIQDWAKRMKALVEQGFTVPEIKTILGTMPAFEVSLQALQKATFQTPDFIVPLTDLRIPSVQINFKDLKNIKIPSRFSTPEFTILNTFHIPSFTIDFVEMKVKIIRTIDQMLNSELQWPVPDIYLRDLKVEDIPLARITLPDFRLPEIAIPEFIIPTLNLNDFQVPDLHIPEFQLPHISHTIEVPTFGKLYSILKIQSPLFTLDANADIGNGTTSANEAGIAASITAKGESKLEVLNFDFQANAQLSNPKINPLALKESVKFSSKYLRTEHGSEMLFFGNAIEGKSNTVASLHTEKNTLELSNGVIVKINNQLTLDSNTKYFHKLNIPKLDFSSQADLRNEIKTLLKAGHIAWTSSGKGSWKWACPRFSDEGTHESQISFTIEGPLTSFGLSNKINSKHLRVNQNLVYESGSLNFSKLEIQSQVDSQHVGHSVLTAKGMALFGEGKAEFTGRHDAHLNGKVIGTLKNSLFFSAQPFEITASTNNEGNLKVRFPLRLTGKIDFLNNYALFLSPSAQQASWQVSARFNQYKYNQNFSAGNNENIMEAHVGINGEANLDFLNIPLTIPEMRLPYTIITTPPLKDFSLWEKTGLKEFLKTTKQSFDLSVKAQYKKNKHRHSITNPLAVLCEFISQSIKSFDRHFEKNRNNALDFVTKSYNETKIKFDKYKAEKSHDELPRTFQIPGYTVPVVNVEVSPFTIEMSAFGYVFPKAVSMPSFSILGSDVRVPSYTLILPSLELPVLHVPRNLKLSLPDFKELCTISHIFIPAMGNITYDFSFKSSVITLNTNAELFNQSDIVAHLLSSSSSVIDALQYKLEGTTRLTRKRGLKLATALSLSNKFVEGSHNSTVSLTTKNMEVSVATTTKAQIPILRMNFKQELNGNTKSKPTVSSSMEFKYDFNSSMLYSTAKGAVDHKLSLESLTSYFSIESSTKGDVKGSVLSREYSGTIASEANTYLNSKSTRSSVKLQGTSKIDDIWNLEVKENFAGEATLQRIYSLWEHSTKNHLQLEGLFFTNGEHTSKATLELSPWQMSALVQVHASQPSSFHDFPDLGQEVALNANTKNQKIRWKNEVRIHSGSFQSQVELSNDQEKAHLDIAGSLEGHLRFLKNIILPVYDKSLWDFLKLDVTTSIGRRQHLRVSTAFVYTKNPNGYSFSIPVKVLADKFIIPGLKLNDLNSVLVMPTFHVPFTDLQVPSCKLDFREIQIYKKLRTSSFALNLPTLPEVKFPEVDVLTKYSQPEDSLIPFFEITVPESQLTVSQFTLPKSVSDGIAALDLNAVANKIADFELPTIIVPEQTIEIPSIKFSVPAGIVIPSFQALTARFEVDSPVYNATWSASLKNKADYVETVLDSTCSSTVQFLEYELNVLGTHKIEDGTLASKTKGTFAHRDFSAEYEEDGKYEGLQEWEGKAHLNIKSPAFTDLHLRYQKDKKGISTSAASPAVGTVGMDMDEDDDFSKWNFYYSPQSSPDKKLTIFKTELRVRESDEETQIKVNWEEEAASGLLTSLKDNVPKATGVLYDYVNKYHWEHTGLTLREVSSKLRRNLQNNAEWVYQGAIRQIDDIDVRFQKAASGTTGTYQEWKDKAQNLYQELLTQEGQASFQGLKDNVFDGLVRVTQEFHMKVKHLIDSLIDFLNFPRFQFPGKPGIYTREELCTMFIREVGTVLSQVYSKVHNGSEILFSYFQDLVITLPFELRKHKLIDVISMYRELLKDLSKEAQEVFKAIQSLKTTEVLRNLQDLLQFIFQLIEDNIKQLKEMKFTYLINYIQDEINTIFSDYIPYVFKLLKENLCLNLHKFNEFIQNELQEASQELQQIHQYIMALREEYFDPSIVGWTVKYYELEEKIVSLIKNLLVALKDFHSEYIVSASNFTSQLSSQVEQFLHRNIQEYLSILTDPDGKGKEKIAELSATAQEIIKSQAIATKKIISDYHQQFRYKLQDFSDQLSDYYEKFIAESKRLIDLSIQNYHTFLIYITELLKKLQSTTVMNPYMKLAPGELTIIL
T3 sequence (P04114 28-4563): as above
T2 sequence (P04114 28-4563): as above

| Substance | Inhibition of binding between LBP-1 and LDL (LBP-1/LDL binding) | Inhibition of binding between LBP-2 and LDL (LBP-2/LDL binding) | Binding of LDL to recombinant LBP-1 (recombinant LBP-1) | Binding of LDL to recombinant LBP-2 (recombinant LBP-2) | Accumulation of radiolabeled LDL in ballooned abdominal aorta versus nonimmune-ballooned rabbits [1] | Less aortic cholesterol content as compared to control mice [2] [%] | Effect of immunization on body weight [3] |
| --- | --- | --- | --- | --- | --- | --- | --- |
| polyglutamic acid [reference compound] | inhibited binding | inhibited binding | – | – | – | – | – |
| val-asp-val-asp-glu-tyr-asp-glu-asn-lys-phe-val-asp-glu-glu-asp-gly-gly-asp-gly (VDVDEYDENKFVDEEDGGDG; listed as Homo sapiens) [BHF-1] | inhibited binding | – | reduce the binding | reduce the binding | lower accumulation | 24 | no effect |
